Data published in patent US8716281B2, “Pyrimidine compounds that inhibit anaplastic lymphoma kinase” (Amgen Inc., priority 2010, dated 2014).

target: T1, wild-type human ALK cytoplasmic domain (amino acids 1058-1620) (Homo sapiens, UniProt Q9UM73); test: ALK Inhibition in Enzyme Assay (Lance TR-FRET); assay type: biochemical; conditions: not given
T1 construct: The cytoplasmic domain (amino acids 1058-1620) of wild-type human ALK; GST (N); made in house; host or cells: SF9 insect cells
Method in brief: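 Purified enzyme phosphorylated a biotinylated peptide substrate for 90 minutes at room temperature. Reactions were stopped with 20 mM EDTA in 50 mM Tris (pH 7.5), 100 mM NaCl, 0.05% BSA, 0.1% Tween-20. Phosphopeptide was detected by TR-FRET with SA-APC and Eu-W1024 anti-phosphotyrosine antibody PT66, excitation 320 nm.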

T1 sequence (Q9UM73 1058-1620): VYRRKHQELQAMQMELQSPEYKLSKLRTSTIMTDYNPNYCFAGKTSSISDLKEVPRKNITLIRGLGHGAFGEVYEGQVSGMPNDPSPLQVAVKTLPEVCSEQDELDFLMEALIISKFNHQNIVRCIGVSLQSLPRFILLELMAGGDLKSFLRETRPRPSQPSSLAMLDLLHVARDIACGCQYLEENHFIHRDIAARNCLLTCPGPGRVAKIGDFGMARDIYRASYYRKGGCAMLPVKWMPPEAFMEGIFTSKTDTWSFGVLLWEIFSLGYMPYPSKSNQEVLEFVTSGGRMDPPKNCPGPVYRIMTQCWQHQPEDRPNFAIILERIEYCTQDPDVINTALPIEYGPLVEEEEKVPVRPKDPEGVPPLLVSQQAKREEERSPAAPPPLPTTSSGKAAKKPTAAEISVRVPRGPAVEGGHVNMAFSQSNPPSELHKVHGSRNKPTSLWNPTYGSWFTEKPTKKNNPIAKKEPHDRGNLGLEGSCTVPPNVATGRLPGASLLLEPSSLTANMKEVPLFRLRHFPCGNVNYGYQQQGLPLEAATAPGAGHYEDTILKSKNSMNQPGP

Compound	IC50 [nM]
COc1cc(Nc2nccc(N3CCC[C@H](C(=O)NCCCc4ccccc4)C3)n2)cc(OC)c1OC [Example 126, (S)-N-(3-phenylpropyl)-1-(2-((3,4,5-trimethoxyphenyl)amino)-4-pyrimidinyl)-3-piperidinecarboxamide]	5000 to 10000

same assay, conditions: 2 nM enzyme, ATP at 40 μM (Km apparent), 90 minutes, mean of three replicates; read-out: ALK IC50

Compound	IC50 [nM]
Cc1ccc(CNC(=O)[C@H]2CCCN(c3ccnc(Nc4cccc(-c5cnco5)c4)n3)C2)cc1 [Example 177, (3S)-N-(4-methylbenzyl)-1-(2-((3-(1,3-oxazol-5-yl)phenyl)amino)-4-pyrimidinyl)-3-piperidinecarboxamide]	100 to 1000
Cc1ccc(CNC(=O)[C@H]2CCCN(c3ccnc(Nc4cccc(Cn5nccn5)c4)n3)C2)cc1 [Example 143, (3S)-N-(4-methylbenzyl)-1-(2-((3-(2H-1,2,3-triazol-2-ylmethyl)phenyl)amino)-4-pyrimidinyl)-3-piperidinecarboxamide]	100 to 1000
Cc1ccc(CNC(=O)[C@H]2CCCN(c3ccnc(Nc4cccc(C(=O)c5ccccc5)c4)n3)C2)cc1 [Example 150, (3S)-N-(4-methylbenzyl)-1-(2-((3-(phenylcarbonyl)phenyl)amino)-4-pyrimidinyl)-3-piperidinecarboxamide]	100 to 1000
COc1cc(Nc2nccc(N3CCC[C@H](C(=O)NCc4ccc(Oc5ccc(Cl)cc5)cc4)C3)n2)cc(OC)c1OC [Example 118, (S)-N-(4-(4-chlorophenoxy)benzyl)-1-(2-((3,4,5-trimethoxyphenyl)amino)-4-pyrimidinyl)-3-piperidinecarboxamide]	100 to 1000
Cc1ccc(CNC(=O)[C@H]2CCCN(c3ccnc(Nc4ccc(N5CCNC(=O)C5)nc4)n3)C2)cc1 [Example 193, (S)-N-(4-methylbenzyl)-1-(2-(6-(3-oxopiperazin-1-yl)pyridin-3-ylamino)pyrimidin-4-yl)piperidine-3-carboxamide]	1000 to 5000
COc1cc(Nc2nccc(N3CCC[C@H](C(=O)NCc4ccc5c(c4)CCO5)C3)n2)cc(OC)c1OC [Example 44, (S)-N-(2,3-dihydro-1-bcnzofuran-5-ylmethyl)-1-(2-((3,4,5-trimethoxyphenyl)amino)-4-pyrimidinyl)-3-piperidinecarboxamide]	100 to 1000
Cc1ccc(CNC(=O)[C@H]2CCCN(c3ccnc(Nc4ccc(S(N)(=O)=O)cc4)n3)C2)cc1 [Example 188, (S)-N-(4-methylbenzyl)-1-(2-(4-sulfamoylphenylamino)pyrimidin-4-yl)piperidine-3-carboxamide]	100 to 1000
Cc1ccc(CNC(=O)[C@H]2CCCN(c3ccnc(Nc4ccc(C(N)=O)cc4)n3)C2)cc1 [Example 173, (3S)-1-(2-((4-carbamoylphenyl)amino)-4-pyrimidinyl)-N-(4-methylbenzyl)-3-piperidinecarboxamide]	1000 to 5000
Cc1ccc(CNC(=O)[C@H]2CCCN(c3ccnc(Nc4ccc(F)cc4)n3)C2)cc1 [Example 179, (3S)-1-(2-((4-fluorophenyl)amino)-4-pyrimidinyl)-N-(4-methylbenzyl)-3-piperidinecarboxamide]	1000 to 5000
COc1cc(Nc2nccc(N3CCC[C@H](C(=O)NCc4ccc(F)cc4)C3)n2)cc(OC)c1OC [Example 14, (S)-N-((4-fluorophenyl)methyl)-1-(2-((3,4,5-tris(methyloxy)phenyl)amino)-4-pyrimidinyl)-3-piperidinecarboxamide]	100 to 1000
Cc1ccc(CNC(=O)[C@H]2CCCN(c3ccnc(Nc4cccc(C(C)(C)C)c4)n3)C2)cc1 [Example 181, (3S)-1-(2-((3-tert-butylphenyl)amino)-4-pyrimidinyl)-N-(4-methylbenzyl)-3-piperidinecarboxamide]	100 to 1000
CC(=O)NCc1cccc(Nc2nccc(N3CCC[C@H](C(=O)NCc4ccc(C)cc4)C3)n2)c1 [Example 183, (3S)-1-(2-((3-((acetylamino)methyl)phenyl)amino)-4-pyrimidinyl)-N-(4-methylbenzyl)-3-piperidinecarboxamide]	100 to 1000
COc1cccc([C@@H](C)NC(=O)[C@H]2CCCN(c3ccnc(Nc4cc(OC)c(OC)c(OC)c4)n3)C2)c1 [Example 48, (S)-N-((R)-1-(3-methoxyphenyl)ethyl)-1-(2-((3,4,5-trimethoxyphenyl)amino)-4-pyrimidinyl)-3-piperidinecarboxamide]	1000 to 5000
Cc1ccc(CNC(=O)[C@H]2CCCN(c3ccnc(Nc4ccc5[nH]ccc5c4)n3)C2)cc1 [Example 131, (3S)-1-(2-(1H-indol-5-ylamino)-4-pyrimidinyl)-N-(4-methylbenzyl)-3-piperidinecarboxamide]	1000 to 5000
COc1cc(Nc2nccc(N3CCC[C@H](C(=O)NCc4ccccc4Br)C3)n2)cc(OC)c1OC [Example 49, (S)-N-(2-bromobenzyl)-1-(2-((3,4,5-trimethoxyphenyl)amino)-4-pyrimidinyl)-3-piperidinecarboxamide]	1000 to 5000
COc1cc(Nc2nccc(N3CCC[C@H](C(=O)NCCc4ccc(C)c(C)c4)C3)n2)cc(OC)c1OC [Example 97, (S)-N-(2-(3,4-dimethylphenyl)ethyl)-1-(2-((3,4,5-trimethoxyphenyl)amino)-4-pyrimidinyl)-3-piperidinecarboxamide]	1000 to 5000

Compound	IC50 [nM]
COc1cc(Nc2nccc(N3CCC[C@H](C(=O)NCc4cccc(Oc5ccc(Cl)cc5)c4)C3)n2)cc(OC)c1OC [Example 105, (S)-N-(3-(4-chlorophenoxy)benzyl)-1-(2-((3,4,5-trimethoxyphenyl)amino)-4-pyrimidinyl)-3-piperidinecarboxamide]	1000 to 5000
COc1cc(Nc2ncc(C)c(N3CCC[C@@H](C(=O)NCc4ccc(C)cc4)C3)n2)cc(OC)c1OC [Example 9, (R)-1-(5-Methyl-2-(3,4,5-Trimethoxyphenyl-Amino)Pyrimidin-4-Yl)-N-(4-Methylbenzyl)Piperidine-3-Carboxamide]	100 to 1000
Cc1ccc(CNC(=O)[C@H]2CCCN(c3ccnc(Nc4cccc(Oc5ccccc5)c4)n3)C2)cc1 [Example 149, (3S)-N-(4-methylbenzyl)-1-(2-((3-phenoxyphenyl)amino)-4-pyrimidinyl)-3-piperidinecarboxamide]	100 to 1000
COc1cc(Nc2nccc(N3CCC[C@H](C(=O)NCc4cccc(NS(C)(=O)=O)c4)C3)n2)cc(OC)c1OC [Example 84, (S)-N-(3-((methylsulfonyl)amino)benzyl)-1-(2-((3,4,5-trimethoxyphenyl)amino)-4-pyrimidinyl)-3-piperidinecarboxamide]	1000 to 5000
CC(=O)N1CC(C)(C)c2ccc(Nc3nccc(N4CCC[C@H](C(=O)NCc5ccc(C)cc5)C4)n3)cc21 [Example 142, (3S)-1-(2-((1-acetyl-3,3-dimethyl-2,3-dihydro-1H-indol-6-yl)amino)-4-pyrimidinyl)-N-(4-methylbenzyl)-3-piperidinecarboxamide]	1000 to 5000
Cc1ccc(CNC(=O)[C@H]2CCCN(c3ccnc(Nc4cccc(F)c4)n3)C2)cc1 [Example 185, (3S)-1-(2-((3-fluorophenyl)amino)-4-pyrimidinyl)-N-(4-methylbenzyl)-3-piperidinecarboxamide]	1000 to 5000
Cc1ccc(CNC(=O)[C@H]2CCCN(c3ccnc(Nc4cc(C(F)(F)F)cc(C(F)(F)F)c4)n3)C2)cc1 [Example 163, (3S)-1-(2-((3,5-bis(trifluoromethyl)phenyl)amino)-4-pyrimidinyl)-N-(4-methylbenzyl)-3-piperidinecarboxamide]	100 to 1000
Cc1ccc(CNC(=O)[C@H]2CCCN(c3ccnc(Nc4cc(OC[C@H]5CCCN5C)cc(C(F)(F)F)c4)n3)C2)cc1 [Example 190, (S)-N-(4-methylbenzyl)-1-(2-(3-(((R)-1-methylpyrrolidin-2-yl)methoxy)-5-(trifluoromethyl)phenylamino)pyrimidin-4-yl)piperidine-3-carboxamide]	50 to 100
COc1cc(Nc2nccc(N3CCC[C@H](C(=O)NCCc4ccc(Br)cc4)C3)n2)cc(OC)c1OC [Example 60, (S)-N-(2-(4-bromophenyl)ethyl)-1-(2-((3,4,5-trimethoxyphenyl)amino)-4-pyrimidinyl)-3-piperidinecarboxamide]	50 to 100
COc1cc(Nc2nccc(N3CCC[C@H](C(=O)NCCc4ccc(F)cc4)C3)n2)cc(OC)c1OC [Example 100, (S)-N-(2-(4-fluorophenyl)ethyl)-1-(2-((3,4,5-trimethoxyphenyl)amino)-4-pyrimidinyl)-3-piperidinecarboxamide]	100 to 1000
Cc1ccc(CNC(=O)[C@H]2CCCN(c3ccnc(Nc4cccc(C(F)(F)F)c4)n3)C2)cc1 [Example 137, (3S)-N-(4-methylbenzyl)-1-(2-((3-(trifluoromethyl)phenyl)amino)-4-pyrimidinyl)-3-piperidinecarboxamide]	1000 to 5000
COc1cc(Nc2nccc(N3CCC[C@H](C(=O)NCc4cc(Cl)ccc4C)C3)n2)cc(OC)c1OC [Example 28, (S)-N-(5-chloro-2-methylbenzyl)-1-(2-((3,4,5-trimethoxyphenyl)amino)-4-pyrimidinyl)-3-piperidinecarboxamide]	50 to 100
Cc1ccc(CNC(=O)[C@H]2CCCN(c3ccnc(Nc4cc(F)cc(F)c4)n3)C2)cc1 [Example 159, (3S)-1-(2-((3,5-difluorophenyl)amino)-4-pyrimidinyl)-N-(4-methylbenzyl)-3-piperidinecarboxamide]	1000 to 5000
Cc1ccc(CNC(=O)[C@H]2CCCN(c3ccnc(Nc4ccc(N5CCOCC5)cc4)n3)C2)cc1 [Example 139, (3S)-N-(4-methylbenzyl)-1-(2-((4-(4-morpholinyl)phenyl)ami-no)-4-pyrimidinyl)-3-piperidinecarboxamide]	1000 to 5000
COc1cc(Nc2nccc(N3CCC[C@H](C(=O)NCc4ccc(-c5cc(Cl)cc(Cl)c5)cc4)C3)n2)cc(OC)c1OC [Example 120, (S)-N-((3′,5′-dichloro-4-biphenylyl)methyl)-1-(2-((3,4,5-trimethoxyphenyl)amino)-4-pyrimidinyl)-3-piperidinecarboxamide]	1000 to 5000
